Measurements from patent publication US20230041859A1, “USE OF TERPENOIDS IN THE TREATMENT OR PREVENTION OF FIBROTIC DISEASES” (Arjil Biotech Holding Company Limited, priority 2021, published 2023).
Where “and” joins values, the source holds several entries; their conditions need not be identical. Equal entries are not always repeated.

Columns and labels:
[1] = tested on: TNF-α, IL-1β, IL-6 and TGF-β; test: Bleomycin-induced pulmonary fibrosis: pro-inflammatory cytokines (ELISA); type: in vivo, mice; conditions: 50 mg/kg (high-dose groups); serum (FIG. 35 legend: BALF); p<0.001
Procedure: (§1) Mice were divided into fifth groups with 5 animals per group according to body weight: control group, BLM group, BLM+DEX group (7.5 mg/kg), BLM+ACH dosage group (50 mg/kg), and BLM+ACM dosage group (25 mg/kg), BLM+ACH dosage group (50 mg/kg), and BLM+ACM dosage group (25 mg/kg) BLM+AH dosage group (50 mg/kg), and BLM+AM dosage group (25 mg/kg) BLM+BH dosage group (50 mg/kg), and BLM+BM dosage group (25 mg/kg) BLM+CH dosage group (50 mg/kg), and BLM+CM dosage group (25 mg/kg) BLM+DH dosage group (50 mg/kg), and BLM+DM dosage group (25 mg/kg) BLM+EH dosage group (50 mg/kg), and BLM+EM dosage group (25 mg/kg) BLM. Pulmonary fibrosis (PF) was established in mice via a single intratracheal administration of BLM at 7.5 mg/kg mg/kg body weight. Different doses of samples were intragastrically administered daily for 21 days after BLM injury, and DEX was used as the positive control. Control and model groups received an equal volume of vehicle (0.9% NaCl) using the same schedule and route of administration.
1. Group I: control; 2. […]
The serum concentration of the pro-inflammatory cytokines (i.e. tumor necrosis factor-α (TNF-α), interleukin-6 (IL-6), and IL-1β) in serum were assessed with relevant enzyme-linked immunosorbent assay (ELISA) kits (Biosource International Inc., Sunnyvale, Calif., USA), based on the manufacturer's instructions. […]

[2] = tested on: bleomycin-induced pulmonary fibrosis; test: Bleomycin-induced pulmonary fibrosis: hydroxyproline content in lung tissue; type: in vivo, mice; conditions: 50 mg/kg (high-dose groups); p<0.001
Procedure: as §1
(§2) 1. Group I: control; 2. Group II: mice received single intraperitoneal injection of BLM (7.5 mg/kg BW) 3. Group III: single dose (ACH, 0.5 g/kg) 4. Group IV: Single dose (ACM, 1.0 g/kg) 5. […] Group VII: purified AR101-DS2 (50 mg/kg) 8. Group VIII: purified AR101-DS2 (25 mg/kg) 7. Group VII: purified AR101-DS4 (50 mg/kg) 8. Group VIII: purified AR101-DS4 (25 mg/kg) 7. […] Group VII: purified ARH013-RA1 (50 mg/kg) 8. Group VIII: purified ARH013-RA1 (25 mg/kg)

[3] = tested on: bleomycin-induced pulmonary fibrosis; test: Bleomycin-induced pulmonary fibrosis: lung histopathology (H&E, Masson's trichrome); type: in vivo, mice; conditions: 50 mg/kg (high-dose groups)
Procedure: as §1
1. Group I: control; 2. Group II: mice received single intraperitoneal injection of BLM (7.5 mg/kg BW) 3. Group III: single dose (ACH, 0.5 g/kg) 4. Group IV: Single dose (ACM, 1.0 g/kg) 5. […] Group VII: purified AR101-DS2 (50 mg/kg) 8. Group VIII: purified AR101-DS2 (25 mg/kg) 7. Group VII: purified AR101-DS4 (50 mg/kg) 8. Group VIII: purified AR101-DS4 (25 mg/kg) 7. […]

MPO = test: Bleomycin-induced pulmonary fibrosis: lung myeloperoxidase (MPO) assay; type: in vivo, mice; conditions: 50 mg/kg (high-dose groups); vs BLM group p<0.001
Procedure: as §1, §2
The lung tissues were homogenized and the MPO levels were detected with the kits according to manufacturer's instruction.

[4] = tested on: bleomycin-induced pulmonary fibrosis; test: Bleomycin-induced pulmonary fibrosis in mice: body weight, lung weight, lung index; type: in vivo; conditions: for Pulmonary index: lung weight/body weight×100
Procedure: (§3) Specific pathogen-free ICR mice (males) (body weights 18-22 g) were purchased from the BioLASCO Taiwan Co., Ltd. (Taipei, Taiwan). The animals were housed in Plexiglas cages at a constant temperature of 22±1° C. and a relative humidity of 55±5% on a 12 h dark-light cycle for at least 2 weeks before the experiment. Animals were provided food and water ad libitum. All experimental procedures were performed according to the guidelines of the Institutional Animal Ethics Committee, and the protocol was approved by the Committee for the Purpose of Control and Supervision of Experiments on Animals.
as §1
Mouse body weights were recorded daily. Mice were sacrificed on the 21th day using excess chloral hydrate hydrochloride anesthesia. Blood was obtained for ELISA analyses, and whole lungs were removed and weighed. The right lungs were fixed in 10% formalin, dehydrated, and embedded in paraffin. The left lungs were used to determine hydroxyproline. The pulmonary coefficient was calculated using the following equation: lung weight/body weight×100% […]
At the end point of the entire experiment, the animal's body weight and lung weight were recorded.

[5] = tested on: cisplatin-induced renal injury; test: Mice model of cisplatin-induced renal injury: serum creatinine (CRE) and BUN; type: in vivo; conditions: compounds, dose not given, daily for 7 days; p<0.001 vs cisplatin group
Procedure: Determination of biochemical parameters Serum creatinine and serum urea are assessed using colorimetric kits according to manufacturer's instructions. Kits of the former markers are purchased from (HUMAN Diagnostics Worldwide, Magdeburg, Germany) with a chemical analyzer (Roche Diagnostics, Cobas Mira Plus, Rotkreuz, Switzerland).
as §3, with “Seven-to-eight-week-old male C57BL/6” for “Specific pathogen-free ICR”, “are obtained” for “(males) (body weights 18-22 g) were purchased”, “are” for “were”, “is” for “was”
Renal fibrosis is induced via multiple injections of low-dose cisplatin. Intraperitoneal injections of cisplatin (5 mg/kg/injection; P4394, Sigma-Aldrich, St Louis, Mo.) are performed at 0, 1, and 3 weeks, for a total of 3 injections. Mice are sacrificed at 6 weeks after the first dose of cisplatin (n=6). To analyze the effects of samples, mice are given daily intraperitoneal injections for 7 days, starting from 4 weeks after first dose of cisplatin, and sacrificed at […] (n=6). […]

HepG2 cells = test: Oleic acid-induced steatosis in HepG2 cells (Oil Red O); type: cell-based, human; conditions: 6 h pre-treatment, then 0.5 mM OA for 24 h, OD 510 nm, at noncytotoxic concentration
Procedure: Oleic acid (OA) induced steatosis in HepG2 cells and may consider an in vitro model for human fatty liver disease. HepG2 cells were treated with different concentrations of oleic acid (OA) to induce steatosis. Intracellular lipid was stained by Oil Red O (ORO), and quantified by colorimetric assay. 0.5 mM OA was chosen for further studies (FIGS. 37 and 38). HepG2 cells were treated with test compounds ([…]) and incubated for 48 h (FIG. 39). HepG2 cells were seeded in 24-well plates and deprived from FBS for 24 h. These cells were then treated with different concentrations of test compounds for 6 h before induced with 0.5 mM OA for 24 h. Cells were gently washed with PBS and fixed using paraformaldehyde at RT, then stained with Oil Red (ORO) solution for 30 min at RT. ORO stain was extracted using pure isopropanol and the optical density was detected at 510 nm (FIG. 40).

[6] = tested on: atherosclerosis and liver fibrosis in hypercholesterolemic rabbit; test: Hypercholesterolemic rabbit model (0.5% cholesterol chow), liver histology scores; type: in vivo; conditions: 10 mg/kg in 0.5% cholesterol chow; individual liver slides, 12-week study
Procedure: 2 to 3 kg male, New Zealand White rabbits are individually caged and housed in temperature and humidity-controlled rooms. Light-dark cycles are 12 h each. After several days of acclimation, the animals are sequentially assigned to six feeding groups: standard rabbit chow, standard rabbit chow containing 0.5% cholesterol, standard rabbit chow containing both 0.5% cholesterol and 10 mg/kg Lovastatin, standard rabbit chow containing both 0.5% cholesterol and 1% ARH003, standard rabbit chow containing both 0.5% cholesterol and 1% ARH004, standard rabbit chow containing both 0.5% cholesterol and 10 mg/kg AR101-DS2. Except standard rabbit chow, others groups are given standard rabbit chow containing 0.5% cholesterol for 4 weeks (see FIGS. 14-15). The daily feeding amount for each rabbit is 50 g/kg body weight per day. Diets are administered for 8 weeks, after the animals had adjusted to their new environment. At the beginning and end of the 12 weeks study, the rabbits are anesthetized by an intramuscular injection of Zoletil 50 (1 mL/kg) (Virbac Ltd., France), and blood samples are harvested. Finally, the aortas (from aortic arch to the bifurcation of the iliac arteries) and whole livers are collected from the rabbits after they are sacrificed for further histopathological analyses.
(ND) standard rabbit chow, n=5; (HF) standard rabbit chow containing 0.5% cholesterol, n=6; (L) standard rabbit chow containing both 0.5% cholesterol and 10 mg/kg Lovastatin, n=4; (AR003) standard rabbit chow containing both 0.5% cholesterol and 1% ARH003, n=5; (AR004) standard rabbit chow containing both 0.5% cholesterol and 1% ARH004, n=5; (AR101-DS2) standard rabbit chow containing both 0.5% cholesterol and 10 mg/kg AR101-DS2, n=5; The daily feeding amount for each rabbit is 50 g/kg body weight per day.
The rabbit liver tissues (shown in FIG. 29) are perfused with normal saline and fixed in 10% (v/v) formalin-neutralized solution (J.T. Baker, Inc., USA) for 24 hr. […] Briefly, the slices are washed with pure water for 1 min to remove the OCT compound, washed with 50% (v/v) ethanol for 30 sec, and then stained with 2% (w/v) Sudan IV for 1 hr. After further washing with 50% (v/v) ethanol and pure water for 2 min, the slices are counterstained with hematoxylin. Photographs shown in FIG. 30 are acquired using a microscope equipped with a 10-fold magnification objective and quantified on an Alpha Imager 2200 documentation system (Alpha Innotech, USA). […]

[7] = 25 mg/kg intragastric daily for 21 days after BLM
[8] = 50 mg/kg intragastric daily for 21 days after BLM
[9] = DEX 7.5 mg/kg daily for 21 days after BLM

For `C=C1C(=O)O[C@@H]2/C=C(\C)C[C@H]3C=C(CC/C=C(\C)CC[C@@H]12)C(=O)O3` [AR100-DS1, Ovatodiolide], the “TNF-α, IL-1β, IL-6 and TGF-β production after BLM challenge” value [1] was “improved”, the “hydroxyproline (HP) content in lung tissue” value (from here on “hydroxyproline (HP) content”) [2] was “reduced” and the “necrosis and inflammatory infiltrating cells in the lung tissue” value [3] was “significantly improved”. For the same compound, the “lung MPO activities” value (MPO) was “evidently suppressed”.

With `C=C(CC[C@@H](C(=O)O)[C@H]1CC[C@@]2(C)C3=CC[C@H]4C(C)(C)[C@@H](O)CC[C@]4(C)C3=CC[C@]12C)C(C)C` [AR101-DS4, Dehydroeburicoic Acid] the Final body mass [4, 7] was 36.44 ± 0.28 g, the Pulmonary mass [4, 7] was 0.52 ± 0.01 g and the Pulmonary index [4, 7] was 1.54 ± 0.04. The Final body mass [4, 8] was 37.47 ± 0.22 g, the Pulmonary mass [4, 8] was 0.49 ± 0.01 g and the Pulmonary index [4, 8] was 1.31 ± 0.01. For the same compound, the “renal protection effect (normalization of serum CRE and BUN)” value [5] was “significant renal protection effect” and the “OA-induced steatosis in HepG2 cells” value (HepG2 cells) was “inhibition”.

With “Dehydrosulphurenic acid/Sulphurenic acid [AR101-DS2]” the Pulmonary index ([4]; 50 mg/kg intragastric daily for 21 days after BLM, listed as BH) was “significant decrease”, the “Score of Inflammation” value [6] was 1 (1′: mild, 2 foci per 200 field) (2×) and 2 (2′: moderate, 2-4 foci per 200 field) and the “Score of Steatosis Grade” value [6] was 3 (3′: >66%) (2×) and 1 (1′: 5-33 %). The “TNF-α, IL-1β, IL-6 and TGF-β production after BLM challenge” value [1] was “improved”, the “hydroxyproline (HP) content” value [2] was “reduced” and the “necrosis and inflammatory infiltrating cells in the lung tissue” value [3] was “significantly improved”. The “lung MPO activities” value (MPO) was “evidently suppressed”.

Work on `C[C@@H]1C[C@H]2[C@@H]3CCC4=CC(=O)C=C[C@]4(C)[C@@]3(F)[C@@H](O)C[C@]2(C)[C@@]1(O)C(=O)CO` [DEX, Dexamethasone, reference compound] yielded a Final body mass [4, 9] of 38.50 ± 0.22 g, a Pulmonary mass [4, 9] of 0.42 ± 0.01 g and a Pulmonary index [4, 9] of 1.09 ± 0.02.

With `CC[C@H](C)C(=O)O[C@H]1C[C@@H](C)C=C2C=C[C@H](C)[C@H](CC[C@@H]3C[C@@H](O)CC(=O)O3)[C@H]21` [L, Lovastatin, reference compound] the “Score of Inflammation” value [6] was 1 (1′: mild, 2 foci per 200 field) and 2 (2′: moderate, 2-4 foci per 200 field) and the “Score of Steatosis Grade” value [6] was 2 (2′: 33-66%) (2×) and 0 (0′: low- to medium-power evaluation of parenchymal involvement <5%).

`C=C(CC[C@@H](C)[C@H]1CC[C@H]2C3=C(C(=O)C[C@]12C)[C@@]1(C)CC[C@@H](O)[C@](C)(O)[C@@H]1C[C@@H]3O)[C@@H](C)C(=O)O` (racemic) [AR101-DS1, RS-Antcin K] showed a Final body mass [4, 7] of 36.45 ± 0.28 g, a Pulmonary mass [4, 7] of 0.52 ± 0.01 g and a Final body mass [4, 8] of 39.02 ± 0.37 g. For the same compound, the Pulmonary mass [4, 8] was 0.46 ± 0.01 g, the “hydroxyproline (HP) content” value [2] was “reduced” and the “lung MPO activities” value (MPO) was “evidently suppressed”.
